The record followed here is publication PMC5724969 (Nature chemical biology, 2017).

For this experiment, the system named is chPylRS (chimeric pyrrolysyl-tRNA synthetase). The experiment is described as follows: […]-tRNA aminoacylation assay, nuclease P1/TLC. It counts as biochemical, Methanosarcina mazei; Methanosarcina barkeri. The conditions noted are these: tRNA(Pyl), 10 mM MgCl2, pH 7.2.

Like-named read-outs stand apart in the source and are kept apart here.

What is called Km is the concentration of substrate that gives half-maximal velocity. Turning to `Nc1ncnc2c1ncn2[C@@H]1O[C@H](COP(=O)(O)OP(=O)(O)OP(=O)(O)O)[C@@H](O)[C@H]1O` [ATP], the Km (read-out: KM ^ATP, BocK as amino acid) stood at 2.54 ± 0.16 µM. `CC(C)(C)OC(=O)NCCCC[C@H](N)C(=O)O` [compound 2, BocK]: the Km (read-out: KM^BocK, ATP) was 1030 ± 50 µM.
